Results on three compounds are retold here after ChEMBL document CHEMBL3045235, “Synthesis of aspirin eugenol ester and its biological activity” (Med Chem Res, 2012).

Each structure is given as a SMILES string.

For series [1], the system named is Rattus norvegicus. Nature of the series: Antipyretic activity against yeast-induced hyperthermia in Rattus norvegicus (rat) assessed as change in body temperature at 1 mmol/kg after 6 hr. In kind it is functional, organism-based.
The test system of series [2] is Mus musculus. In words: Anti-inflammatory activity against xylene-induced ear swelling Mus musculus (mouse) model as suppression of ear swelling at 1.11 mmol/kg, ig measured 1 hr after xylene challenge. Type of series: functional. The conditions noted are these: po.
For series [3], the system named is Rattus norvegicus. Nature of the series: Antipyretic activity against yeast-induced hyperthermia in Rattus norvegicus (rat) assessed as change in body temperature at 1.5 mmol/kg after 6 hr. In kind it is functional, organism-based.
Series [4] deals with Rattus norvegicus. Nature of the series: Antipyretic activity against yeast-induced hyperthermia in Rattus norvegicus (rat) assessed as change in body temperature at 2 mmol/kg after 6 hr. Type of series: functional, organism-based.
Series [5] deals with Rattus norvegicus. Nature of the series: Antipyretic activity against yeast-induced hyperthermia in Rattus norvegicus (rat) assessed as change in body temperature at 1.5 mmol/kg after 4 hr. Type of series: functional, organism-based.
Series [6] has as its system Mus musculus. In words: Analgesic activity in Mus musculus (mouse) assessed as pain threshold at 1.1 mmol/kg, ig after 60 min by hot plate test (reference value: 21.28 +/- 3 sec). Type of series: functional.
The subject of series [7] is Mus musculus. Nature of the series: Toxicity in ig dosed Mus musculus (mouse) assessed as effect on liver measured post autopsy. Type of series: organism-based. The conditions noted are these: in vivo, po.
The test system of series [8] is Rattus norvegicus. Nature of the series: Antipyretic activity against yeast-induced hyperthermia in Rattus norvegicus (rat) assessed as change in body temperature at 1 mmol/kg after 2 hr. In kind it is functional, organism-based.
For series [9], the system named is Rattus norvegicus. In words: Antipyretic activity against yeast-induced hyperthermia in Rattus norvegicus (rat) assessed as change in body temperature at 2 mmol/kg after 4 hr. Type of series: functional, organism-based.
Series [10] has as its system Rattus norvegicus. Nature of the series: Antipyretic activity against yeast-induced hyperthermia in Rattus norvegicus (rat) assessed as change in body temperature at 1 mmol/kg after 4 hr. Type of series: functional, organism-based.
In series [11] the test system is Mus musculus. In words: Toxicity in ig dosed Mus musculus (mouse) assessed as effect on heart after 7 days. In kind it is organism-based. Conditions: in vivo, po, 168 h.
In series [12] the test system is Mus musculus. Nature of the series: Analgesic activity in Mus musculus (mouse) assessed as pain threshold at 0.56 mmol/kg, ig after 120 min by hot plate test (reference value: 19.06 +/- 4.55 sec). Type of series: functional.
Series [13] has as its system Mus musculus. In words: Toxicity in ig dosed Mus musculus (mouse) assessed as effect on spleen measured post autopsy. Type of series: organism-based. The conditions noted are these: in vivo, po.
The subject of series [14] is Mus musculus. In words: Anti-inflammatory activity against xylene-induced ear swelling Mus musculus (mouse) model as suppression of ear swelling at 0.56 mmol/kg, ig measured 1 hr after xylene challenge. The conditions noted are these: po. In kind it is functional.
In series [15] the test system is Mus musculus. In words: Analgesic activity in Mus musculus (mouse) assessed as pain threshold at 1.1 mmol/kg, ig after 180 min by hot plate test (reference value: 17.67 +/- 5.78 sec). In kind it is functional.
Series [16] has as its system Rattus norvegicus. Nature of the series: Antipyretic activity against yeast-induced hyperthermia in Rattus norvegicus (rat) assessed as change in body temperature at 1.5 mmol/kg after 2 hr. In kind it is functional, organism-based.
Series [17] relates to Mus musculus. In words: Toxicity in ig dosed Mus musculus (mouse) assessed as effect on kidney measured post autopsy. In kind it is organism-based. Conditions: in vivo, po.
Series [18] has as its system Mus musculus. In words: Analgesic activity in Mus musculus (mouse) assessed as pain threshold at 0.56 mmol/kg, ig after 180 min by hot plate test (reference value: 17.67 +/- 5.78 sec). In kind it is functional.
In series [19] the test system is Mus musculus. In words: Toxicity in ig dosed Mus musculus (mouse) assessed as effect on liver after 7 days. Type of series: organism-based. Conditions: in vivo, po, 168 h.
The test system of series [20] is Mus musculus. In words: Toxicity in ig dosed Mus musculus (mouse) assessed as effect on spleen after 7 days. Type of series: organism-based. The conditions noted are these: in vivo, po, 168 h.
The test system of series [21] is Mus musculus. Nature of the series: Analgesic activity in Mus musculus (mouse) assessed as pain threshold at 1.1 mmol/kg, ig after 120 min by hot plate test (reference value: 19.06 +/- 4.55 sec). In kind it is functional.
Series [22] deals with Mus musculus. Nature of the series: Toxicity in ig dosed Mus musculus (mouse) assessed as mortality within 24 hr. Type of series: organism-based. Conditions: in vivo, po.
Series [23] concerns Mus musculus. In words: Toxicity in ig dosed Mus musculus (mouse) assessed as effect on kidney after 7 days. Type of series: organism-based. The conditions noted are these: in vivo, po, 168 h.
For series [24], the system named is Mus musculus. In words: Toxicity in ig dosed Mus musculus (mouse) assessed as effect on heart measured post autopsy. Type of series: organism-based. Conditions: in vivo, po.
The subject of series [25] is Rattus norvegicus. In words: Antipyretic activity against yeast-induced hyperthermia in Rattus norvegicus (rat) assessed as change in body temperature at 2 mmol/kg after 2 hr. In kind it is functional, organism-based.
In series [26] the test system is Mus musculus. In words: Analgesic activity in Mus musculus (mouse) assessed as pain threshold at 0.56 mmol/kg, ig after 60 min by hot plate test (reference value: 21.28 +/- 3 sec). In kind it is functional.
The test system of series [27] is Mus musculus. In words: Analgesic activity in Mus musculus (mouse) assessed as pain threshold at 0.56 mmol/kg, ig after 30 min by hot plate test (reference value: 24.88 +/- 5.28 sec). In kind it is functional.
Series [28] deals with Mus musculus. Nature of the series: Analgesic activity in Mus musculus (mouse) assessed as pain threshold at 1.1 mmol/kg, ig after 30 min by hot plate test (reference value: 24.88 +/- 5.28 sec). Type of series: functional.
Series [29] in a line: Toxicity in ig dosed Mus musculus (mouse). Type of series: organism-based. Conditions: in vivo, po.

Take `C=CCc1ccc(OC(=O)c2ccccc2OC(C)=O)c(OC)c1` [ASPIRIN EUGENOL ESTER]: the deltaT in the series with Rattus norvegicus [1] is -1.32 °C; with Rattus norvegicus [3], -1.45 °C; with Rattus norvegicus [4] it was -2.49 °C; in the series with Rattus norvegicus [5], -1.4 °C; in the series with Rattus norvegicus [8], -1.2 °C; with Rattus norvegicus [9], -2.46 °C. Further, the deltaT in the series on Rattus norvegicus [10] was -1.29 °C; in the series on Rattus norvegicus [16] it was -1.14 °C; with Rattus norvegicus [25] it was -2.09 °C. This compound also yielded an inhibition in vivo at 1110 µmol/kg in the series with Mus musculus [2] of 45.9%. In addition, the Time in the series on Mus musculus [6] was 28.8 s; with Mus musculus [12], 26.85 s; in the series on Mus musculus [15] it was 29.69 s; in the series with Mus musculus [18] it was 29.13 s; with Mus musculus [21], 28.74 s; in the series on Mus musculus [26] it was 28.81 s. Besides, the Time was found to be 24.45 s in the series on Mus musculus [27] and 29.5 s with Mus musculus [28]. The Activity entry with Mus musculus [7], in the series with Mus musculus [11], in the series on Mus musculus [13], with Mus musculus [17], in the series with Mus musculus [19] and in the series on Mus musculus [20] was “Non-toxic” in each case. The values for the Activity result in the series with Mus musculus [22], in the series with Mus musculus [23] and with Mus musculus [24] were “Toxic”, “Non-toxic” and “Non-toxic”, respectively. The inhibition in vivo at 560 µmol/kg with Mus musculus [14] worked out at 44.8%. Also, in series [29], the LD50 worked out at 10900 mg/kg.
Regarding `C=CCc1ccc(O)c(OC)c1` [EUGENOL], in the series with Mus musculus [2], the inhibition in vivo at 1110 µmol/kg is 32.9%. Moreover, the deltaT in the series on Rattus norvegicus [3] is -1.21 °C; in the series on Rattus norvegicus [5], -1.11 °C; in the series on Rattus norvegicus [16], -0.94 °C. In addition, the Time with Mus musculus [6] is on record as 28.01 s; in the series with Mus musculus [15] it was 25.5 s; with Mus musculus [21] it was 24.86 s; with Mus musculus [28], 30.76 s. In addition, in series [29], the LD50 turned out to be 3000 mg/kg.
In the series with Mus musculus [2], `CC(=O)Oc1ccccc1C(=O)O` [ASPIRIN] showed an inhibition in vivo at 1110 µmol/kg of 45.2%. Moreover, the deltaT is -1.78 °C with Rattus norvegicus [3], -1.8 °C in the series on Rattus norvegicus [5] and -2.19 °C in the series on Rattus norvegicus [16]. Besides, the LD50 in series [29] is 250 mg/kg.
